Measured values: ChEMBL document CHEMBL3525915, “Elucidation of a novel bioactivation pathway of a 3,4-unsubstituted isoxazole in human liver microsomes: formation of a glutathione adduct of a cyanoacrolein derivative after isoxazole ring opening” (Drug Metab Dispos, 2011)
Blank lines part the entries; values can stand above or below the compound they belong to.

How the values were obtained:
[1] = system: Liver microsome; assay: Drug level in human liver microsomes assessed as compound formation treated with 20 uM N-((2-isopropyl-7-methyl-1-oxoisoindolin-5-yl)methyl)isoxazole-5-carboxamide (drug stock solution contained 1% methanol) LC-MS/MS analysis in presence of NADPH and GSH; type: ADME
[2] = Drug level in 0.1 N NaOH aqueous solution assessed as compound formation treated with 40 uM N-((2-isopropyl-7-methyl-1-oxoisoindolin-5-yl)methyl)isoxazole-5-carboxamide for 20 mins by LC-MS/MS analysis; type: physicochemical; conditions: buffer
[3] = system: Liver microsome; assay: Drug level in human liver microsomes assessed as compound formation treated with 20 uM N-((2-isopropyl-7-methyl-1-oxoisoindolin-5-yl)methyl)isoxazole-5-carboxamide (drug stock solution contained 1% acetonitrile) LC-MS/MS analysis in presence of NADPH and GSH; type: ADME
[4] = system: Liver microsome; assay: Retention time of the compound in human liver microsomes in presence of NADPH at 37 degC incubated for 1 hr by liquid chromatography; type: ADME
[5] = system: Liver microsome; assay: Drug metabolism in human liver microsomes treated with 20 uM N-((2-isopropyl-7-methyl-1-oxoisoindolin-5-yl)methyl)isoxazole-5-carboxamide assessed compound formation in presence of NADPH using [13C]-labeled CH3OH drug stock solution at 37 degC incubated for 1 hr by liquid chromatography; type: ADME
[6] = Drug level in 0.1 N NaOH aqueous solution assessed as compound formation treated with 40 uM N-((2-isopropyl-7-methyl-1-oxoisoindolin-5-yl)methyl)isoxazole-5-carboxamide for 20 mins at pH 7.5 by LC-MS/MS analysis in presence of formaldehyde and GSH; type: physicochemical; conditions: buffer, pH 7.5, 20 min
[7] = system: Liver microsome; assay: Drug metabolism in human liver microsomes assessed ratio of sum peak areas of metabolite M1 and M2 to peak area of internal standard at 20 uM in presence of NADPH and 1 mM 1-ABT at 37 degC incubated for 1 hr by liquid chromatography; type: ADME
[8] = system: Liver microsome; assay: Drug metabolism in human liver microsomes assessed metabolite formation at 20 uM in absence of NADPH at 37 degC incubated for 1 hr by liquid chromatography; type: ADME
[9] = system: Liver microsome; assay: Drug metabolism in human liver microsomes assessed as 2-amino-5-(1-(carboxymethylamino)-3-(3-cyano-5-((2-isopropyl-7-methyl-1-oxoisoindolin-5-yl)methylamino)-4,5-dioxopentan-2-ylthio)-1-oxopropan-2-ylamino)-5-oxopentanoic acid formation at 20 uM (drug stock solution contained ethanol) by LC-MS/MS analysis in presence of NADPH; type: ADME
[10] = system: Liver microsome; assay: Drug metabolism in human liver microsomes assessed ratio of sum peak areas of metabolite M1 and M2 to peak area of internal standard at 20 uM in presence of NADPH and in absence of 1 mM 1-ABT at 37 degC incubated for 1 hr by liquid chromatography; type: ADME
[11] = system: Liver microsome; assay: Drug metabolism in human liver microsomes assessed as metabolite formation at 20 uM (drug stock solution contained 1% acetonitrile) LC-MS/MS analysis in presence of NADPH and GSH; type: ADME
[12] = system: Liver microsome; assay: Drug metabolism in human liver microsomes assessed as (Z)-3-cyano-2-hydroxy-N-((2-isopropyl-7-methyl-1-oxoisoindolin-5-yl)methyl)acrylamide formation at 20 uM for 1 hr by LC-MS/MS analysis in presence of NADPH; type: ADME
[13] = system: Liver microsome; assay: Drug level in human liver microsomes assessed as compound formation treated with 20 uM N-((2-isopropyl-7-methyl-1-oxoisoindolin-5-yl)methyl)isoxazole-5-carboxamide for 1 hr by LC-MS/MS analysis in presence of NADPH; type: ADME
[14] = system: Liver microsome; assay: Drug level in human liver microsomes assessed as compound formation treated with 20 uM N-((2-isopropyl-7-methyl-1-oxoisoindolin-5-yl)methyl)isoxazole-5-carboxamide (drug stock solution contained 1% ethanol) LC-MS/MS analysis in presence of NADPH; type: ADME
[15] = system: Liver microsome; assay: Drug level in human liver microsomes assessed as compound formation treated with 20 uM N-((2-isopropyl-7-methyl-1-oxoisoindolin-5-yl)methyl)isoxazole-5-carboxamide (drug stock solution contained 1% acetonitrile) LC-MS/MS analysis in presence of NADPH; type: ADME

Drug metabolism [1]: metabolite_detected
Drug metabolism [2]: metabolite_detected
Drug metabolism [3]: metabolite_not_detected
Retention_time [4]: 9.72 min
Drug metabolism [5]: metabolite_detected
Drug metabolism [6]: metabolite_detected
SMILES: Cc1cc(CNC(=O)C(=O)C(C#N)CSC[C@H](NC(=O)CC[C@H](N)C(=O)O)C(=O)NCC(=O)O)cc2c1C(=O)N(C(C)C)C2 (some centres not stated)

Ratio [7]: 0.128
Drug metabolism [8]: metabolite_not_detected
Drug metabolism [9]: metabolite_detected
Ratio [10]: 1.22
Retention_time [4]: 17.06 min
Drug metabolism [11]: metabolite_not_detected
Drug metabolism [12]: metabolite_detected
SMILES: Cc1cc(CNC(=O)c2ccno2)cc2c1C(=O)N(C(C)C)C2

Drug metabolism [13]: metabolite_detected
Drug metabolism [2]: metabolite_detected
Retention_time [4]: 13.55 min
SMILES: Cc1cc(CNC(=O)/C(O)=C/C#N)cc2c1C(=O)N(C(C)C)C2

Drug metabolism [2]: metabolite_detected
Retention_time [4]: 12.69 min
SMILES: Cc1cc(CNC(=O)C(=O)CC#N)cc2c1C(=O)N(C(C)C)C2

Retention_time [4]: 10.82 min
SMILES: Cc1cc(CNC(=O)C(=O)C(C#N)C(C)SC[C@H](NC(=O)CC[C@H](N)C(=O)O)C(=O)NCC(=O)O)cc2c1C(=O)N(C(C)C)C2 (single isomer, unassigned; diastereomer 1)

Retention_time [4]: 10.08 min
Drug metabolism [14]: metabolite_detected
Drug metabolism [15]: metabolite_not_detected
SMILES: Cc1cc(CNC(=O)C(=O)C(C#N)C(C)SC[C@H](NC(=O)CC[C@H](N)C(=O)O)C(=O)NCC(=O)O)cc2c1C(=O)N(C(C)C)C2 (single isomer, unassigned; diastereomer 2)
